≈ marks a conversion by molar mass, not a printed value.
How the values were obtained:
[1] = Mass of mice after treatment; type: in vivo; conditions: with NIR irradiation
Description: Further, referring to FIG. 15B, which is a mass vs. time graph of mice after treated by different conditions. The treating conditions were PBS+NIR irradiation, pure DOX+NIR irradiation, non-drug loaded carriers+NIR irradiation, and carriers loaded with DOX+NIR irradiation, and changes in the mass of the mice along time of which are represented by lines 950, 960, 970, and 980, respectively.

RG2 cells = assay: Toxicity tests for photothermal therapy in RG2 cells
Method: Toxicity tests for photothermal therapy: No carriers, non-drug loaded carriers, and drug carriers of the present invention with different DOX concentrations were independently incubated with RG2 cells in vitro for 1 hour, and irradiated by NIR for 5 minutes (808 nm, 2 W/cm^2). Then, the cells were stained by propidium iodide and observed by a confocal microscope, and the cell viabilities were calculated.
The conditions for bars 810, 820, and 830 were without using of DOX, and bars 810, 820, and 830 represents the cell viabilities of no carriers, which is as a control, carriers without the NIR irradiation, and carriers with the NIR irradiation, respectively. The conditions for bars 840, 850, and 860 were using of 0.25 μg/mL DOX, and bars 840, 850, and 860 represents the cell viabilities of pure DOX, which is as a control, carriers without the NIR irradiation, and carriers with the NIR irradiation, respectively. The conditions for bars 870, 880, and 890 were using of 0.05 μg/mL DOX, and bars 870, 880, and 890 represents the cell viabilities of pure DOX, which is as a control, carriers without the NIR irradiation, and carriers with the NIR irradiation, respectively. […] Bar 850 represents the drug carriers loaded with 0.25 μg/mL DOX, but not underwent the NIR irradiation after incubating with the cells. […] Bar 860 represents the drug carriers loaded with 0.25 μg/mL DOX, and underwent the NIR irradiation after incubating with the cells.

[2] = system: in vivo tumors (RG2 cells); assay: Relative tumor volume after treatment with NIR irradiation; conditions: mice, 24 hours after the treatment
Method: In Experimental example 7, the targeting efficiency of the drug carrier of the present invention was tested by experiments on in vivo tumors (RG2 cells) of mice. The tumor temperature was also observed while undergoing NIR irradiation. Further, the effects on the volume of the tumors and the mass of the mice were observed through different conditions of treatment.
Referring to FIG. 15A, which is a relative tumor volume vs. time graph of mice after treated by different conditions. The treating conditions were PBS+NIR irradiation, pure DOX+NIR irradiation, non-drug loaded carriers+NIR irradiation, and carriers loaded with DOX+NIR irradiation, and changes in the relative tumor volume along time of which are represented by lines 910, 920, 930, and 940, respectively. The relative tumor volume was observed after 24 hours later of the treatment, and used the tumor volume right after the treatment as a base. […] As for the treatments of the PBS+NIR irradiation, i.e. line 910, and the pure DOX+NIR irradiation, i.e. line 920, the tumor volumes were increased. […] The treatment of the PBS+NIR irradiation, i.e. line 910, could not treat the tumor because there was no drug being injected. The treatment of the pure DOX+NIR irradiation, i.e. line 920, was difficult to reach the tumor region to have the effect of therapy because the drug was not encapsulated in carriers. […]

COc1cccc2c1C(=O)c1c(O)c3c(c(O)c1C2=O)C[C@@](O)(C(=O)CO)C[C@@H]3O[C@H]1C[C@H](N)[C@H](O)[C@H](C)O1 [DOX, doxorubicin]
mass of mice over time [1]: no obvious difference in mass | cell death (RG2 cells; RG2 cells, pure DOX 0.25 μg/mL (bar 840)): about 50% | cell viability at 0.05 μg/mL DOX compared with 0.25 μg/mL (RG2 cells; RG2 cells, without NIR irradiation (bars 870, 880)): increased | IC50 (RG2 cells; Rattus norvegicus, RG2, read-out: half maximal inhibitory concentration (IC50)): ~0.25 µg/mL (≈ 0.46 µM) | relative tumor volume [2]: increased

Reference: patent publication US20160089443A1, “PROTEIN-GRAPHENE NANOCOMPOSITE DRUG CARRIER” (NATIONAL CHIAO TUNG UNIVERSITY, priority 2014, published 2016)
